Assay results reported in patent US6767889B1, “Inhibition of angiogenesis by high molecular weight kininogen and peptide analogs thereof” (Temple University of the Commonwealth System of Higher …, priority 1998, dated 2004).
No end group written: not given here.

Tested on: human umbilical vein endothelial cells (HUVEC)

Row | Substance | IC50 [µM]
1 | GHGHGHGKHKNKGKKN-OH [SEQ ID NO:8, Gly-His-Gly-His-Gly-His-Gly-Lys-His-Lys-Asn-Lys-Gly-Lys-Lys-Asn] | 8
2 | HKNKGKKNGKHNGWKT-OH [SEQ ID NO:9, His-Lys-Asn-Lys-Gly-Lys-Lys-Asn-Gly-Lys-His-Asn-Gly-Trp-Lys-Thr] | 14
